Measurements taken from US20240391931A1 (Bristol-Myers Squibb Company, priority 2021, published 2024).

Legend:
HER2 WT = target: T1, HER2 WT (Homo sapiens, UniProt P04626); assay: Enzymatic assay HER2 WT (method a); assay type: biochemical; details: [HER2 WT]=12.5 nM, [ATP]=25 μM, [Peptide 22]=1 μM
T1 construct: purchased ProQinase, Freiburg, Germany ERBB2 0108-0000-1
Method in brief: (§1)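 Microfluidic mobility-shift kinase assay with Peptide 22 (1 μM) in HEPES pH 7.5, MnCl2, MgCl2, Tween 20, TCEP. HER2 WT 12.5 nM and HER2 YVMA 5 nM each used 25 μM ATP; EGFR WT 2 nM used 1 mM ATP. IC50 came from initial-velocity (0–3600 s) percent inhibition, fitted to a variable-slope model.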

[1] = target: T2, HER2 wildtype (WT) protein (Homo sapiens, UniProt P04626); assay: HER2 signaling (pHER2 Tyr1248/total HER2 MSD) in BT474 cells; assay type: cell-based; details: 1.5 hr compound, 1% FBS
T2 construct: BT474 and N87 cell lines which endogenously overexpress the HER2 wildtype (WT) protein; endogenous in cells; host or cells: BT474, N87
Method in brief: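 BT474, N87 (HER2 WT) and NCI-H1781 (HER2 G776delinsVC) cells were treated for 1.5 h at 37° C in 1% FBS medium with compound at 0.0005–1.1 μM. pHER2 Tyr1248 was measured by MSD on whole-cell lysates and normalized to total HER2 as % DMSO. EC50 came from a variable-slope sigmoidal fit.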

EGFR WT = target: T3, EGFR WT (Homo sapiens, UniProt P00533); assay: Enzymatic assay EGFR WT (method c); assay type: biochemical; details: [EGFR WT]=2 nM, [ATP]=1 mM, [Peptide 22]=1 μM
T3 construct: purchased Thermo Fisher, Carlsbad, CA ERBB1 PR7295B
Method in brief: as §1

T2 sequence (P04626 23-1255): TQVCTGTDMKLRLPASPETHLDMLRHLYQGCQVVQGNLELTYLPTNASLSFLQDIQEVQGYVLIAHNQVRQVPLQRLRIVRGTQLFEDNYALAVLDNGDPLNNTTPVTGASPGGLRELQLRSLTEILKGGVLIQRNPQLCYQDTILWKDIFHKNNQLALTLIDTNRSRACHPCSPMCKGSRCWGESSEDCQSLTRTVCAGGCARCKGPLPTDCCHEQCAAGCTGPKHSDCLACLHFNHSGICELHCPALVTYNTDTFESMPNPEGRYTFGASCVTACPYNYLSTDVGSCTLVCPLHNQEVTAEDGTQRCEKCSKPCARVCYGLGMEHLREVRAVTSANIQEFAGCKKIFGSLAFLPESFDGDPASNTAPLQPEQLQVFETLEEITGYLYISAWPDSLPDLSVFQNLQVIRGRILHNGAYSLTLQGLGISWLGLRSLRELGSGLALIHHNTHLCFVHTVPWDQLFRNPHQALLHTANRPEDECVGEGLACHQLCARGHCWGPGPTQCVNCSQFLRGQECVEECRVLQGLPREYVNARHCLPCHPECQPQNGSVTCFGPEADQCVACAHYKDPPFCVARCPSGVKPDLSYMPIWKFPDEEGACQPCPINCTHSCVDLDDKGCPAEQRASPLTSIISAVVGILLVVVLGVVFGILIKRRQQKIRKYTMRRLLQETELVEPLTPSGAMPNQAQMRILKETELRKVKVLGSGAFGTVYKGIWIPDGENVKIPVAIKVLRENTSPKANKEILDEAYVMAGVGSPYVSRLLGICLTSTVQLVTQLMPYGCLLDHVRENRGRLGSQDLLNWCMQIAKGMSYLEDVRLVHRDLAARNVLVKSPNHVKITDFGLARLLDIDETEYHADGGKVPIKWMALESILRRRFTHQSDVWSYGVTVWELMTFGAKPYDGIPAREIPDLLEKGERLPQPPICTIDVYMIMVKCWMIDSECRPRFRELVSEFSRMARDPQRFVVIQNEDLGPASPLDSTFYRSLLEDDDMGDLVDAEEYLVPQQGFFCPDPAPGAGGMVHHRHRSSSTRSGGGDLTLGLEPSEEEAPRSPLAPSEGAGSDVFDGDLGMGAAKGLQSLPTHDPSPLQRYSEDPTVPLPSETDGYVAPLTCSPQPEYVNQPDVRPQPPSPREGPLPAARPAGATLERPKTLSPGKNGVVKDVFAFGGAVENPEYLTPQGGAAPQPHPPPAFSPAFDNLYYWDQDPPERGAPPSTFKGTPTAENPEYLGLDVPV
T1 sequence (P04626 23-1255): as above
T3 sequence (P00533 25-1210): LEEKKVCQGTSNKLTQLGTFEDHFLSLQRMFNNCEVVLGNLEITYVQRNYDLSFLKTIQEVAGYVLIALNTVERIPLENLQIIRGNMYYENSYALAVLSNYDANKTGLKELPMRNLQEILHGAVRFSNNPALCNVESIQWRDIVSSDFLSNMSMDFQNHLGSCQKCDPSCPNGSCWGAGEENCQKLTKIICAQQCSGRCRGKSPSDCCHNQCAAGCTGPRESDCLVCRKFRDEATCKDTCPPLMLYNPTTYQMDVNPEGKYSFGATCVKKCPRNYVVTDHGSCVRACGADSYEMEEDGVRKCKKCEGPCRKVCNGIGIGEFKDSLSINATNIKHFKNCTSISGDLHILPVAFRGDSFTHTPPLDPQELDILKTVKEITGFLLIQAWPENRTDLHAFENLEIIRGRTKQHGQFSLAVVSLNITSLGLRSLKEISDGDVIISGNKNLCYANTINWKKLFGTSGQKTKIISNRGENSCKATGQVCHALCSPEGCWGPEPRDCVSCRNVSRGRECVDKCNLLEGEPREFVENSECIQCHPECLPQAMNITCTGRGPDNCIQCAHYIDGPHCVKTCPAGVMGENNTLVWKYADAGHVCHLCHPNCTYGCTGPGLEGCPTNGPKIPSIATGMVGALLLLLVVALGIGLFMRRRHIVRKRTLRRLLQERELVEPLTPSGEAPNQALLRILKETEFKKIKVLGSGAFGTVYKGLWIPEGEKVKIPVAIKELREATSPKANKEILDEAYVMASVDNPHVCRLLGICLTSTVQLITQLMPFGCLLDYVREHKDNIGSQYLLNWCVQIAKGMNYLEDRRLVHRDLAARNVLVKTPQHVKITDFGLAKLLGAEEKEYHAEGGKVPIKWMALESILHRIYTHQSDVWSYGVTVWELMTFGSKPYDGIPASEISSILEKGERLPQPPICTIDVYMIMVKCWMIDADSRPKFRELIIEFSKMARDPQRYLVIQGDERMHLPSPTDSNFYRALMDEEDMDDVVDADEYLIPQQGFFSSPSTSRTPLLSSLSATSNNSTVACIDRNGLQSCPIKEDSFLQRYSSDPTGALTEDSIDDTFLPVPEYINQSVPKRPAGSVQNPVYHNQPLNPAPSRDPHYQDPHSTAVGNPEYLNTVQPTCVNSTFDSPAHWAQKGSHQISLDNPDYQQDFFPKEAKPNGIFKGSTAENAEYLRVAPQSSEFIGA

IC50 (HER2 WT) [nM] | EC50 [1] [nM] | IC50 (EGFR WT) [nM] | SMILES
100 to 1000 | < 100 | > 10000 | Cc1cc(Nc2ncnc3sc4c(c23)CN(C(=O)/C=C/CN(C)C)CC4)ccc1Oc1ccc2ncnn2c1 [Compound 103, (E)-1-(4-((4-([1,2,4]triazolo[1,5-a]pyridin-6-yloxy)-3-methylphenyl)amino)-7,8-dihydropyrido[3′,4′:4,5]thieno[2,3-d]pyrimidin-6(5H)-yl)-4-(dimethylamino)but-2-en-1-one]
< 100 | < 100 | > 10000 | Cc1cc(Nc2ncnc3sc4c(c23)CCN(C(=O)/C=C/CN(C)C)C4)ccc1Oc1ccc2nonc2c1 [Compound 104, (E)-1-(4-((4-(Benzo[c][1,2,5]oxadiazol-5-yloxy)-3-methylphenyl)amino)-5,6-dihydropyrido[4′,3′:4,5]thieno[2,3-d]pyrimidin-7(8H)-yl)-4-(dimethylamino)but-2-en-1-one]
